{
  "source": "ChEMBL document CHEMBL1201862",
  "about": "“PubChem BioAssay data set” (2004)",
  "key": {"[1]": {"tested_on": "Streptococcus sp. 'group A'", "assay": "growth inhibition of control SK(-) GAS strain, dose response, counter-screen for streptokinase expression inhibitor project, luminescence, kanamycin, BacTiterGlo, confirmation (AID 1900)", "format": "functional, organism-based"}, "Streptokinase A": {"target": "T1, Streptokinase A (Streptococcus pyogenes serotype M1, UniProt P10520)", "T1 sequence (P10520 whole entry)": "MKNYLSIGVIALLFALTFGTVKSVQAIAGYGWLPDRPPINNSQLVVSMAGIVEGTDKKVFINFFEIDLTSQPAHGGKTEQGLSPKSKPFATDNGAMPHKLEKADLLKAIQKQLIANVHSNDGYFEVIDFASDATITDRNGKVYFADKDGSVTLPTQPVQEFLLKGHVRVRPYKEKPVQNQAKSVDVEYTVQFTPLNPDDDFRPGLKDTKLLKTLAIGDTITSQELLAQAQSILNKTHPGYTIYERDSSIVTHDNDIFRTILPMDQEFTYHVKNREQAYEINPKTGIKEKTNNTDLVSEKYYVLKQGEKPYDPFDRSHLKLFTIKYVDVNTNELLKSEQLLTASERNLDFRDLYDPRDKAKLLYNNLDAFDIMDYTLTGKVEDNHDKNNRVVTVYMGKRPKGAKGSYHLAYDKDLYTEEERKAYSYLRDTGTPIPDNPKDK", "assay": "S. pyogenes streptokinase expression inhibitors, potency, dose response, plasminogen activation absorbance, OD405 (AID 1914);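 also: secreted streptokinase activity via plasminogen activation per viability signal from cell pellet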", "format": "functional, Streptococcus pyogenes M1 GAS"}, "[2]": {"assay": "inhibitors of intracellular T. cruzi replication, confirmation, NIH3T3 host cells, beta-gal luminescence (AID 2044);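 also: luminescent beta-galactosidase reporter signal from transgenic T. cruzi replicating inside host cells; inhibitors lower the luminescence signal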", "format": "functional, cell-based"}, "[3]": {"assay": "cytotoxicity toward NIH3T3 fibroblasts, dose response, counter-screen, cell-based, ATP luminescence, mouse fibroblasts (AID 2010);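 also: cells exposed to compound for about 90 hours before reading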", "format": "functional"}, "Streptococcus": {"tested_on": "Streptococcus", "assay": "Group A Streptococcus viability loss, dose response, counter-screen for streptokinase expression inhibitor project, luminescence, BacTiterGlo (AID 1915);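 also: potency for reduction of bacterial viability or growth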", "format": "functional, organism-based"}, "[4]": {"target": "G-protein coupled receptor 55 (Homo sapiens, UniProt Q9Y2T6)", "sequence (Q9Y2T6 whole entry)": "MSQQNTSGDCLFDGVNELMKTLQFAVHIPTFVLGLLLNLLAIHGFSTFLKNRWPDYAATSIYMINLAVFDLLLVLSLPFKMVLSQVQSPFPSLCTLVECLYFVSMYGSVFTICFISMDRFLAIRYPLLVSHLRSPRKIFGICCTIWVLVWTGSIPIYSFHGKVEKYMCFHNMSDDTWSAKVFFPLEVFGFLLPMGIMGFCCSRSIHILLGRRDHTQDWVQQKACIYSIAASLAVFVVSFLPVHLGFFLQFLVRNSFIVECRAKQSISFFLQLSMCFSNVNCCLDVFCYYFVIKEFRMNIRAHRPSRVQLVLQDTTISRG", "assay": "GPR55 agonists via beta-arrestin recruitment, primary screen, imaging, U2OS cells, beta-arrestin-GFP redistribution (AID 1961)", "format": "functional"}, "Nonstructural protein 1": {"target": "Nonstructural protein 1 (Influenza A virus, UniProt Q194T2)", "sequence (Q194T2 whole entry)": "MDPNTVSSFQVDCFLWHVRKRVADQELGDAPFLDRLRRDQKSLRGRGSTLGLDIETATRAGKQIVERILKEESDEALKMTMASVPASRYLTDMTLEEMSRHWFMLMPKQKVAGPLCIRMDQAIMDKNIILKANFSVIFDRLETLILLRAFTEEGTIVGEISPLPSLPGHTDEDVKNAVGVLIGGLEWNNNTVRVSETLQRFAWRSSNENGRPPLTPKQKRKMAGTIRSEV", "format": "functional, Influenza A virus (A/California/07/2009(H1N1))"}, "CHO": {"tested_on": "CHO", "assay": "cytotoxicity in TLR9-MyD88 CHO cells, dose response, cytotoxicity control for TLR9-MyD88 binding inhibitor project, cell-based, luminescence (AID 588339);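 also: compound exposure lasted 48 hours before viability readout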", "format": "functional, hamster", "details": "Cricetulus griseus"}, "HEK293": {"tested_on": "HEK293", "assay": "inhibitors of LMP1-driven NF-kB reporter, dose response, cell-based, HEK293, luciferase, cherry-pick (AID 588343)", "format": "functional", "details": "Homo sapiens"}, "[5]": {"target": "T2, Replicative DNA helicase DnaB (Mycobacterium tuberculosis, UniProt P9WMR3)", "T2 sequence (P9WMR3 whole entry)": "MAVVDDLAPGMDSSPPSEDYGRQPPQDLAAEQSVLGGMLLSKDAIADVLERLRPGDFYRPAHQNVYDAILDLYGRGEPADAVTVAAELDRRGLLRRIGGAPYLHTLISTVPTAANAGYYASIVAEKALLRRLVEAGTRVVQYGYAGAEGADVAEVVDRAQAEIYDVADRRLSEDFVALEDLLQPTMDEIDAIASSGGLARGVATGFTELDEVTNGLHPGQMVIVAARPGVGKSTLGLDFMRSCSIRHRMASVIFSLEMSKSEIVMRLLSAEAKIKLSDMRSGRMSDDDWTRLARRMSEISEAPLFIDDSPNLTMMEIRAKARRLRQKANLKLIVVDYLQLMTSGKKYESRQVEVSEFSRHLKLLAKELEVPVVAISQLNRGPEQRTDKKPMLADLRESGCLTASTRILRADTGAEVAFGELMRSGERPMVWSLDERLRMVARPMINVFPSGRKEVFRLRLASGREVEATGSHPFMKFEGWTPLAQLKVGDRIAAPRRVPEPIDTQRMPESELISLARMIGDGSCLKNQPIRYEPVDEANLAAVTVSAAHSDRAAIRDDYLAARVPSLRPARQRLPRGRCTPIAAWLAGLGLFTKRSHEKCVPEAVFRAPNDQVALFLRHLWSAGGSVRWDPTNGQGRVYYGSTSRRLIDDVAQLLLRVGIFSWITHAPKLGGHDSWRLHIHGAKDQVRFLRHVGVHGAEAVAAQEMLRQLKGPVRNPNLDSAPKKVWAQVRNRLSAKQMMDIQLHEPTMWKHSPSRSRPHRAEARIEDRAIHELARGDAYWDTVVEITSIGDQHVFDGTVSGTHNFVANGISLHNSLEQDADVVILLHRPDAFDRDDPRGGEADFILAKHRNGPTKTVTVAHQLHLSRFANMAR", "assay": "DnaB intein splicing inhibitors, dose response, biochemical, cell-free fluorescence (AID 449749)", "format": "functional"}, "Protein RecA": {"target": "T3, Protein RecA (Mycobacterium tuberculosis, UniProt P9WHJ3)", "T3 sequence (P9WHJ3 whole entry)": "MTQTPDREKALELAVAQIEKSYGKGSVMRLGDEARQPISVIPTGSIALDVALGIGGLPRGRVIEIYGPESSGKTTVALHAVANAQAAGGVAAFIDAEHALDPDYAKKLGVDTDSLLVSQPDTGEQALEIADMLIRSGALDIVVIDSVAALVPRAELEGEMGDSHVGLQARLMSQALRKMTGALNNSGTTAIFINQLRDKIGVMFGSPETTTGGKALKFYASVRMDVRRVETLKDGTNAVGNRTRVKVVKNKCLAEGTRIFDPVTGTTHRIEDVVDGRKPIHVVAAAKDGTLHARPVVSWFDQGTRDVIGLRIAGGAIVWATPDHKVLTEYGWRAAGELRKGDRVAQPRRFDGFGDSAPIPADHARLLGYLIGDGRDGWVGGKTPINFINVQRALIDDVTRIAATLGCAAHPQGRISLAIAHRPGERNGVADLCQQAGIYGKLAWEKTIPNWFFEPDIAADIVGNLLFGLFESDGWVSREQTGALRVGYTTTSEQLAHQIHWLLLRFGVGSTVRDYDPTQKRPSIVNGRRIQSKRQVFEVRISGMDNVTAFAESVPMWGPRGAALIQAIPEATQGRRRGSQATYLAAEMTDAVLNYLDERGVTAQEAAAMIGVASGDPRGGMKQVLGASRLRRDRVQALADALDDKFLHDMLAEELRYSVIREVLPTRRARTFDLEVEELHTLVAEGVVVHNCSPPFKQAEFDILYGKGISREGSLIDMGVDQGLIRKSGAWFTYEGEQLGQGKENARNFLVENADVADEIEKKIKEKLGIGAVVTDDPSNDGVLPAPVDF", "assay": "Fluorescence Cell-Free Homogeneous Dose Retest to Identify Inhibitors of RecA-Intein Splicing Activity. [Related pubchem assays (depositor defined):AID2097, AID2223, AID489010, AID492950]", "format": "functional"}, "Beta Lactamase": {"target": "Beta Lactamase (Pseudomonas aeruginosa, UniProt Q932Y6)", "sequence (Q932Y6 whole entry)": "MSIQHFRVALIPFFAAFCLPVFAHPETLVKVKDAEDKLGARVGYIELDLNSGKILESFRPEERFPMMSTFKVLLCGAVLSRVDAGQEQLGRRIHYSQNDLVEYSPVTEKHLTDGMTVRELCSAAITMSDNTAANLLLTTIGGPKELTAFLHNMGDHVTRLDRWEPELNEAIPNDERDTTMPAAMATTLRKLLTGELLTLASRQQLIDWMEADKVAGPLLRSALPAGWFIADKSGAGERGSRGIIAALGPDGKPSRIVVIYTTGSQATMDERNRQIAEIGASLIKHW", "assay": "beta-lactamase reporter inhibitor potency, dose response, artefact control for TLR9-MyD88 binding inhibitor project, BLA reporter cells, FRET fluorescence (AID 588341);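 also: cell based assay in CHO-K1 cells stably expressing beta-lactamase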", "format": "cell-based"}, "[6]": {"target": "Delta-type opioid receptor (Homo sapiens, UniProt P41143)", "sequence (P41143 whole entry)": "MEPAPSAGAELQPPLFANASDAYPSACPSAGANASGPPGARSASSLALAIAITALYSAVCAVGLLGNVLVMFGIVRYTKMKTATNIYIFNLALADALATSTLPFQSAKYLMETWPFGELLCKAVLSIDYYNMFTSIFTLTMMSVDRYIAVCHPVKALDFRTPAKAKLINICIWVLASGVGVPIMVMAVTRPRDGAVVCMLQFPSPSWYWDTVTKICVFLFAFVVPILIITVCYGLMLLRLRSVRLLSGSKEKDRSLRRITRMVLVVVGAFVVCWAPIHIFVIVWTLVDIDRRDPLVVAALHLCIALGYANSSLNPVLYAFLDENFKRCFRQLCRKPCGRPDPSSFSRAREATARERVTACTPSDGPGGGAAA", "assay": "Counterscreen for agonists of heterodimerization of the mu 1 (OPRM1) and delta 1 (OPRD1) opioid receptors: Luminescence-based cell-based high throughput dose response assay to identify agonists of OPRD1 homodimerization. [Related pubchem assays (depositor defined):AID504326, AID504355, AID504692, AID504904, AID504905]", "format": "functional"}, "Mu-type opioid receptor": {"target": "Mu-type opioid receptor (Homo sapiens, UniProt P35372)", "sequence (P35372 whole entry)": "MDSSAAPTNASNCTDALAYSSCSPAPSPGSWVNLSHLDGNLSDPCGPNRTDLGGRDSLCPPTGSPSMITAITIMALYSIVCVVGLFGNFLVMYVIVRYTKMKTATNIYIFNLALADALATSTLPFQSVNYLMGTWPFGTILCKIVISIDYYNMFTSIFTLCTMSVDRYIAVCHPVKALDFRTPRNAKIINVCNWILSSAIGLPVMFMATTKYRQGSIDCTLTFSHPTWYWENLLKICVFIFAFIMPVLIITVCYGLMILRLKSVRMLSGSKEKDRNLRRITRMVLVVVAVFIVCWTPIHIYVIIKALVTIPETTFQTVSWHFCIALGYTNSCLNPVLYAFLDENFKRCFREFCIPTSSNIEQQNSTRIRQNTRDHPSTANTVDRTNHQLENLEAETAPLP", "assay": "Counterscreen for agonists of heterodimerization of the mu 1 (OPRM1) and delta 1 (OPRD1) opioid receptors: Luminescence-based cell-based high throughput dose response assay to identify agonists of OPRM1 homodimerization.", "format": "functional"}, "[7]": {"target": "5-hydroxytryptamine receptor 5A (Homo sapiens, UniProt P47898)", "sequence (P47898 whole entry)": "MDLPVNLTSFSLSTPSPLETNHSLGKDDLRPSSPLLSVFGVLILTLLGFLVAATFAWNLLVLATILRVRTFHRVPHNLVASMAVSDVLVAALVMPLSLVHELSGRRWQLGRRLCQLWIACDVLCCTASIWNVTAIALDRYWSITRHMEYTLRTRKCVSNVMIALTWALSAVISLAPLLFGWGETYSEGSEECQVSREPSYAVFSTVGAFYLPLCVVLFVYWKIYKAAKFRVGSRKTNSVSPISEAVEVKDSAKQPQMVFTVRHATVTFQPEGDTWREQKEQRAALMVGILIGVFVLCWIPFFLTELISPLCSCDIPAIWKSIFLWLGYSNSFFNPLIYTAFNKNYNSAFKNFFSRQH", "assay": "Counterscreen for agonists of OPRM1-OPRD1 heterodimerization: luminescence-based cell-based high throughput dose response assay to identify agonists of 5-hydroxytryptamine (serotonin) 5A receptor (HTR5A). [Related pubchem assays (depositor defined):AID504326, AID504355, AID504692, AID504904, AID504905]", "format": "functional"}, "INS1": {"tested_on": "INS1", "assay": "beta cell apoptosis inhibitors, cytokine rescue, dose response, luminescence, retest (AID 449756);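 also: cell death triggered by IL-1 beta plus TNF-alpha plus IFN-gamma mixture; protective hits raise ATP signal compared with cytokine alone wells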", "format": "functional, cell-based", "details": "Rattus norvegicus"}, "[8]": {"assay": "Shn3 3'UTR reporter inhibitors, dose response, cell-based, Clone20 osteoblasts, firefly luciferase, cherry-picked (AID 624132)", "format": "functional"}, "[9]": {"assay": "HepG2 cell cytotoxicity, dose response, cytotoxicity control for Shn3 inhibitor project, CellTiter-Glo, cherry-picked (AID 624134)", "format": "functional, cell-based"}, "[10]": {"assay": "control 3'UTR Renilla luciferase suppression, dose response, counter-screen for Shn3 inhibitor project, cell-based, Clone20-Shn3RL, cherry-picked (AID 624133)", "format": "functional"}, "[11]": {"assay": "inhibitors of HIV Env-driven cell fusion, dose response, cherry-pick (AID 652057)", "format": "functional, cell-based"}, "[12]": {"assay": "CEM21 lymphoblast cell cytotoxicity, dose response, cytotoxicity control for viral fusion inhibitor project, CellTiter-Glo luminescence, cherry-picked (AID 652042);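 also: potency for signal decrease meaning cytotoxicity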", "format": "functional, cell-based"}, "[13]": {"assay": "ZM109 Env clade C HIV-1 fusion inhibitors, dose response, HeLa effector, CEM target cells, luciferase, cherry-pick (AID 652058)", "format": "functional, cell-based"}, "[14]": {"assay": "inhibitors of clade B AD8 Env fusion, dose response, cell-based, cherry-pick (AID 652062);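 also: potency is for inhibitors of fusion seen as a drop in luminescence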", "format": "functional"}, "[15]": {"target": "DNA dC->dU-editing enzyme APOBEC-3A (Homo sapiens, UniProt P31941)", "sequence (P31941 whole entry)": "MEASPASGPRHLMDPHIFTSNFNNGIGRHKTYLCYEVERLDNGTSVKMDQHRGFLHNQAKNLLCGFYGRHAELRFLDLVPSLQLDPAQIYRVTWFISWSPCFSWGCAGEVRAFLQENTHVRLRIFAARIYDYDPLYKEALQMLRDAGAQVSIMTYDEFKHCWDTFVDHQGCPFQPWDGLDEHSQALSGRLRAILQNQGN", "assay": "APOBEC3A DNA deaminase inhibitors, dose response, biochemical (AID 504722)", "format": "functional"}, "[16]": {"target": "DNA dC->dU-editing enzyme APOBEC-3G (Homo sapiens, UniProt Q9HC16)", "sequence (Q9HC16 whole entry)": "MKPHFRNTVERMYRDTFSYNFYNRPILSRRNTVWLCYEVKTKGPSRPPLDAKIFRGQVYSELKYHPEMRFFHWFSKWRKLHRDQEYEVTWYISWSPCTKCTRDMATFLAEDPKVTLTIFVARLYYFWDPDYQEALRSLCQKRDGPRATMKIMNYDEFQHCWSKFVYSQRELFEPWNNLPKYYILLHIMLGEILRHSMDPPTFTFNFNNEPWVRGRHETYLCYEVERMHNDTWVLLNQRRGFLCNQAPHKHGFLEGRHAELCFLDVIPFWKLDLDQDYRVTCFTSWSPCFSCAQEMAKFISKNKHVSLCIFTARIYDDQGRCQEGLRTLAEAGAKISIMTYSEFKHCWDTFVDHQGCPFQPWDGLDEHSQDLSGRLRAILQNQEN", "assay": "Dose Response confirmation of small molecule APOBEC3G DNA Deaminase Inhibitors via a fluorescence-based single-stranded DNA deaminase assay. [Related pubchem assays (depositor defined):AID493012, AID493028]", "format": "functional"}},
  "note": "Activity calls are given as the source filed them.",
  "data": [
    {"smiles": "CCc1ccc(Nc2n[n+](-c3ccccc3)c(-c3c(Cl)cccc3Cl)s2)cc1", "values": [
      {"measurement": "EC50", "setting": "[1]", "result": "3.58 µM (active)"},
      {"measurement": "EC50", "setting": "Streptokinase A", "result": "7.4 µM (active)"},
      {"measurement": "EC50", "setting": "[2]", "result": "1.35 µM (active)"},
      {"measurement": "EC50", "setting": "[3]", "result": "5.53 µM (active)"},
      {"measurement": "EC50", "setting": "Streptococcus", "result": "10.3 µM (active)"},
      {"measurement": "EC50", "setting": "[4]", "result": "> 32 µM (inactive)"},
      {"measurement": "IC50", "setting": "Nonstructural protein 1", "result": "24.4 µM (active)"},
      {"measurement": "IC50", "setting": "CHO", "result": "6.79 µM (active)"},
      {"measurement": "AC50", "setting": "HEK293", "result": "47.5 µM (active)"},
      {"measurement": "AC50", "setting": "[5]", "result": "3.71 µM (active)"},
      {"measurement": "EC50", "setting": "Protein RecA", "result": "9.38 µM (active)"},
      {"measurement": "IC50", "setting": "Beta Lactamase", "result": "3.12 µM (active)"},
      {"measurement": "EC50", "setting": "[6]", "result": "14.2 µM (inactive)"},
      {"measurement": "EC50", "setting": "Mu-type opioid receptor", "result": "> 92.5 µM (inactive)"},
      {"measurement": "EC50", "setting": "[7]", "result": "> 92.5 µM (inactive)"},
      {"measurement": "AC50", "setting": "INS1", "result": "3.65 µM (active)"},
      {"measurement": "AC50", "setting": "[8]", "result": "5.4 µM (active)"},
      {"measurement": "AC50", "setting": "[9]", "result": "14.6 µM (active)"},
      {"measurement": "AC50", "setting": "[10]", "result": "19.4 µM (active)"},
      {"measurement": "AC50", "setting": "[11]", "result": "15.5 µM (active)"},
      {"measurement": "AC50", "setting": "[12]", "result": "10.8 µM (active)"},
      {"measurement": "AC50", "setting": "[13]", "result": "23.3 µM (active)"},
      {"measurement": "AC50", "setting": "[14]", "result": "5.91 µM (active)"}
    ]},
    {"smiles": "C=CCn1c(-c2cccc(Cl)c2)n[nH]c1=S", "values": [
      {"measurement": "IC50", "setting": "[15]", "result": "> 100 µM (inactive)"},
      {"measurement": "IC50", "setting": "[16]", "result": "6.21 µM (active)"}
    ]},
    {"smiles": "COc1cccc(/C=N/n2c(S)nnc2-c2[nH]nc3c2CCC3)c1OC", "values": [
      {"measurement": "IC50", "setting": "[15]", "result": "> 100 µM (inactive)"},
      {"measurement": "IC50", "setting": "[16]", "result": "3.45 µM (active)"}
    ]}
  ]
}
